Results on 2 compounds are retold here after patent US20220233688A1, “ADJUVANTS FOR IMMUNOGENIC COMPOSITIONS AND METHODS OF USE THEREOF” (UNIVERSITY OF MARYLAND, BALTIMORE, priority 2019, published 2022).

The conditions of data set [1]: reported in literature (21); cited from earlier work.
The next data set relates to HPV16-L1 VLPs. The arrangement: species or system BALB/c mice. The settings on record: mouse, in vivo.
The test system of the next data set is RSV A2. Format: in vivo, Balb/c mice. The settings on record: IM days 0 and 21, RSV A2 challenge, lung four days after challenge (day 39).
Data set [2] deals with A/Netherlands/602/2009 (H1N1) (NL/09) virus. In kind it is in vivo, BALB/c mice. The settings on record: 7 days.
The test system is the same in data set [3]. Kind of data set: Lung tissue histology inflammation scoring after NL/09 challenge. Format: in vivo, BALB/c mice. The settings on record: 0.04 ug rHA alone or with 100 ug Alum or 50 ug PHAD/BECC, prime-boost. As to the method:
Staining of lung tissue was performed by the UMB EM and Histology Laboratory to assess any histological signs and potential clearing of viral infection. 4% Paraformaldehyde-fixed (Sigma-Aldrich, St Louis, Mo.) lungs were embedded in paraffin and sectioned before staining with haematoxylin and eosin (H&E). Representative slides were selected to most accurately portray the condition of the lungs within each group of vaccinated mice. Pathology scoring was performed by Dr (LT) Robert Kitz, Anatomic Pathologist, Walter Reed National Military Medical Center, Bethesda, Md. Lung sections from each mouse were scored based on overall inflammation using the following scoring parameters (group scores averaged): 0=no inflammation, 1=scant inflammation (<5% multifocal or one small focus); 2=prominent inflammation, <25% parenchyma; 3=prominent inflammation, 25-50% parenchyma; 4=diffuse inflammation, 50-75% parenchyma; 5=diffuse inflammation, >75% parenchyma.

A further data set relates to Cal/09 rHA. Also noted: species or system BALB/c mice. As to conditions: mouse, in vivo.

Entries after “also recorded” stand apart in the source; their conditions may differ.

`CCCCCCCCCCCCCC(=O)O[C@H](CCCCCCCCCCC)CC(=O)O[C@@H]1[C@@H](NC(=O)C[C@H](CCCCCCCCCCC)OC(=O)CCCCCCCCCCCCC)[C@H](OC[C@H]2O[C@H](O)[C@H](NC(=O)C[C@H](O)CCCCCCCCCCC)[C@@H](OC(=O)C[C@H](O)CCCCCCCCCCC)[C@@H]2O)O[C@H](CO)[C@H]1OP(=O)(O)O` [GLA, glucopyranosyl lipid-A]: in data set [1], the “particle size of aqueous formulation” value is 90 nm.
Take “phosphorylated hexa-acyl disaccharide [PHAD]”: in the data set with HPV16-L1 VLPs, the “L1 ELISA Ab levels” value was “greater L1 ELISA Ab levels compared to alum alone”. Besides, in the data set with RSV A2, the “protection by lung viral titers” value is “full protection in the lower respiratory tract”. In data set [2], this compound displayed an average weight loss of 10%. In addition, in data set [3], the “histological inflammation scoring of lung” value is “low inflammation scores with minimal bronchiolar or periarterial inflammation”. Besides, in the data set with Cal/09 rHA, the “Day 28 total serum IgG antibody titer” value is “significant difference between the HA alone and PHAD groups; also recorded: somewhat higher”; the “HA-specific IgG2a titer” value is on record as “significantly higher than sham”.
